Results as given in ChEMBL document CHEMBL4007425, “Drug Repurposing of Histone Deacetylase Inhibitors That Alleviate Neutrophilic Inflammation in Acute Lung Injury and Idiopathic Pulmonary Fibrosis via Inhibiting Leukotriene A4 Hydrolase and Blocking LTB4 Biosynthesis” (J Med Chem, 2017).
The source made the active and inactive calls. The rule behind the calls is not given here.

Key:
[1] = biological target: T1, Leukotriene A-4 hydrolase (Homo sapiens, UniProt P09960); test: Inhibition of recombinant human LTA4H Epoxide Hydrolase expressed in Escherichia coli BL21 (DE3) pLysS preincubated for 10 mins followed by addition of LTA4 as substrate measured after 15 mins by reverse-phase HPLC analysis
T1 sequence (P09960 whole entry): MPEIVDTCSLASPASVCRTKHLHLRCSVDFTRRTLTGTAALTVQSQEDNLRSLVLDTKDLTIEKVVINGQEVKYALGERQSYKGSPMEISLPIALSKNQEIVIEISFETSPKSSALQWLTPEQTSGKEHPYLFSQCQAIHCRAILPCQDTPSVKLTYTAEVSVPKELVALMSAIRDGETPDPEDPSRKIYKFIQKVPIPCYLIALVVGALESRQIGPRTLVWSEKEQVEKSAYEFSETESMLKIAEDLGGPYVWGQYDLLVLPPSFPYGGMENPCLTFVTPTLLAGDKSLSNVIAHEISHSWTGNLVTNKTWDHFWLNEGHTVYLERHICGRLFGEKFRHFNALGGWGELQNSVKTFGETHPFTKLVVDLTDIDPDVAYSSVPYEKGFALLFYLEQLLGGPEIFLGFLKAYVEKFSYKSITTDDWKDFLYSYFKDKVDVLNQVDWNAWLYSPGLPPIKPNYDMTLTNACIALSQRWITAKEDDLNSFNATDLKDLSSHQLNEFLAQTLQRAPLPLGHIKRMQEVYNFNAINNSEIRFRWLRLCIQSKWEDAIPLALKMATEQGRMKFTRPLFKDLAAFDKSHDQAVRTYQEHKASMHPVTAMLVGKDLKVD

[2] = biological target: T1, Leukotriene A-4 hydrolase; test: Inhibition of recombinant human LTA4H aminopeptidase activity expressed in Escherichia coli BL21 (DE3) pLysS assessed as formation of p-NA from Ala-p-NA preincubated for 10 mins followed by substrate addition measured after 10 mins; format: ADME
[3] = biological target: T2, Leukotriene A-4 hydrolase (Homo sapiens) (UniProt P09960); settings: at 10 µM
T2 sequence (whole entry): T1 sequence (P09960 whole entry)
Description: Inhibition of recombinant human LTA4H Epoxide Hydrolase expressed in Escherichia coli BL21 (DE3) pLysS at 10 uM preincubated for 10 mins followed by addition of LTA4 as substrate measured after 15 mins by reverse-phase HPLC analysis

[4] = biological target: T3, Leukotriene A-4 hydrolase (LTA4H) aminopeptidase activity (Homo sapiens, UniProt P09960); test: Inhibition of recombinant human LTA4H aminopeptidase activity expressed in Escherichia coli BL21 (DE3) pLysS assessed as formation of p-NA from Ala-p-NA at 10 uM preincubated for 10 mins followed by substrate addition measured after 10 mins
T3 sequence (P09960 whole entry): T1 sequence (P09960 whole entry)

[5] = biological target: T2, Leukotriene A-4 hydrolase (Homo sapiens)
Description: Binding affinity to recombinant human LTA4H hydrolase assessed as change in melting temperature at 50 uM by SYPRO orange dye-based thermofluor assay

[6] = tested on: Mus musculus; test: Anti-inflammatory activity in LPS-induced C57BL/6 mouse model of acute lung injury assessed as reduction in pathological changes at 25 mg/kg, ip and co-treated with ((2S,3R)-3-amino-2-hydroxy-4-phenylbutanamido)-4-methylpentanoic acid pretreated for 1 hr followed LPS challenge measured after 24 hrs by hematoxylin and eosin staining based microscopy; format: functional, organism-based
[7] = species on record: Mus musculus; settings: C57BL/6, at 25 mg/kg
Description: Inhibition of LTB4 biosynthesis in LPS-induced C57BL/6 mouse model of acute lung injury BLAF at 25 mg/kg, ip by ELISA

[8] = biological target: T2, Leukotriene A-4 hydrolase (Homo sapiens); settings: 10 uM
[9] = tested on: Mus musculus; test: Anti-inflammatory activity in BLM-induced C57BL/6 mouse model of acute lung neutrophilic inflammation assessed as reduction in number of neutrophils in BALF at 30 mg/kg, ip qd for 7 days post BLM challenge measured on day 7; format: functional, organism-based

SMILES | IC50 [1] [µM] | IC50 [2] [µM] | inhibition [3] [%] | inhibition at 10 min, 10 µM [4] [%] | ΔTm [5] [°C] | inhibition at 10 min, 10 µM ([4]; probe Ala-p-NA) [%] | Activity [6] | inhibition [7] | ΔTm [8] [°C] | Activity [9]
O=C(CCCCCN1C(=O)c2cccc3cccc(c23)C1=O)NO | > 10 | 4.4 | > 50 | > 50 | -0.68 | – | – | – | – | –
CC(C)C[C@H](NC(=O)[C@@H](O)[C@H](N)Cc1ccccc1)C(=O)O | – | – | – | – | – | – | Active | Active | – | –
CN(CCCOc1ccc(Cc2ccccc2)cc1)CCC(=O)O | – | – | – | – | – | – | – | – | 2.95 | –
COC(=O)c1ccc2c(c1)NC(=O)/C2=C(\Nc1ccc(N(C)C(=O)CN2CCN(C)CC2)cc1)c1ccccc1 | – | – | – | – | – | – | – | – | – | Active
CN(C)Cc1c(C(=O)NCCOc2ccc(C(=O)NO)cc2)oc2ccccc12 [ABEXINOSTAT] | > 10 | > 10 | > 50 | – | 0.24 | > 50 | – | – | – | –
O=C(/C=C/c1cccc(S(=O)(=O)Nc2ccccc2)c1)NO [BELINOSTAT] | > 10 | > 10 | > 50 | – | 0.11 | > 50 | – | – | – | –
C#Cc1cccc(Nc2ncnc3cc(OC)c(OCCCCCCC(=O)NO)cc23)c1 [CUDC-101] | > 10 | > 10 | > 50 | > 50 | 0.3 | – | – | – | – | –
Nc1ccccc1NC(=O)c1ccc(CNC(=O)OCc2cccnc2)cc1 [ENTINOSTAT] | > 10 | > 10 | > 50 | – | 0.39 | > 50 | – | – | – | –
CCN(CC)Cc1ccc2cc(COC(=O)Nc3ccc(C(=O)NO)cc3)ccc2c1 [GIVINOSTAT] | > 10 | > 10 | > 50 | – | 0.19 | > 50 | – | – | – | –
Nc1ccccc1NC(=O)c1ccc(CNc2nccc(-c3cccnc3)n2)cc1 [MOCETINOSTAT] | > 10 | > 10 | > 50 | – | -0.33 | > 50 | – | – | – | –
Cc1[nH]c2ccccc2c1CCNCc1ccc(/C=C/C(=O)NO)cc1 [PANOBINOSTAT] | > 10 | > 10 | > 50 | – | 0.12 | > 50 | – | – | – | –
CCCC(CCC)C(=O)O [VALPROATE SODIUM] | > 10 | > 10 | > 50 | – | 0.36 | > 50 | – | – | – | –

Second part, led by results:

IC50 [1] [µM] | IC50 [2] [µM] | inhibition [3] [%] | inhibition at 10 min, 10 µM [4] [%] | ΔTm [5] [°C] | inhibition at 10 min, 10 µM ([4]; probe Ala-p-NA) [%] | SMILES | Activity [6] | inhibition [7] | ΔTm [8] [°C] | Activity [9]
> 10 | > 10 | > 50 | > 50 | 0.31 | – | CCCCc1nc2cc(/C=C/C(=O)NO)ccc2n1CCN(CC)CC [PRACINOSTAT] | – | – | – | –
> 10 | > 10 | > 50 | – | 0.52 | > 50 | Cn1cc(CNCC2CCN(c3ncc(C(=O)NO)cn3)CC2)c2ccccc21 [QUISINOSTAT] | – | – | – | –
> 10 | > 10 | > 50 | – | 0.44 | > 50 | CN(C)Cc1ccc(S(=O)(=O)n2ccc(/C=C/C(=O)NO)c2)cc1 [RESMINOSTAT] | – | – | – | –
> 10 | > 10 | > 50 | – | 0.55 | > 50 | O=C(CCCCCCNC(=O)c1cnc(N(c2ccccc2)c2ccccc2)nc1)NO [RICOLINOSTAT] | – | – | – | –
> 10 | > 10 | > 50 | – | 0.17 | > 50 | CC(/C=C/C(=O)NO)=C\[C@@H](C)C(=O)c1ccc(N(C)C)cc1 [TRICHOSTATIN] | – | – | – | –
> 10 | > 10 | > 50 | – | 0.34 | > 50 | O=C(CCCCCCC(=O)Nc1ccc([C@H]2O[C@@H](CSc3nc(-c4ccccc4)c(-c4ccccc4)o3)C[C@@H](c3ccc(CO)cc3)O2)cc1)NO [TUBACIN] | – | – | – | –
